# l = locked nucleic acid (LNA); d = 2'-deoxy (DNA)
# Columns and labels:
# Format in all cases: cell-based, human
# hCD39 mRNA [1] = experiment: IC50 determination / concentration-dependent hCD39 mRNA knockdown in HDLM-2 cells; details: for mRNA inhibition: HDLM-2, 3 days; for IC50: HDLM-2 cells, hCD39 mRNA, 3 days
# Experimental: HDLM-2 cells were treated for 3 days with the indicated concentration of the respective antisense oligonucleotide. Residual hCD39 expression is depicted compared to untreated control cells. hCD39 mRNA expression values were normalized to expression of the housekeeping gene HPRT1.
# The antisense oligonucleotide A04040H (SEQ ID No. 3) that had shown potent activity in the first and second screening round was used as reference. HDLM-2 cells treated for 3 days with the indicated concentrations of the respective antisense oligonucleotide. hCD39 mRNA expression values were normalized to expression of the housekeeping gene HPRT1. Residual hCD39 mRNA expression relative to untreated cells (set as 100) is depicted. Depicted is the mean of triplicate wells+/−SD.
# In a second experiment the concentration-dependency of effects and the IC50 values of hCD39 antisense oligonucleotides A04010H (SEQ ID No.14), A04016H (SEQ ID No.20), A04017H (SEQ ID No.21), A04020H (SEQ ID No. 24) and A04026H (SEQ ID No.30) were tested. […] HDLM-2 cells were treated with titrated amounts of the respective antisense oligonucleotide (concentrations: 10 μM, 3.3 μM, 1.1 μM, 370 nM, 120 nM, 41 nM, 14 nM, 4.5 nM). hCD39 mRNA expression was analyzed after three days of treatment. FIG. 5 and Table 9 depicts the concentration-dependent reduction of hCD39 mRNA expression by the selected hCD39 antisense oligonucleotides.
# The hCD39 antisense oligonucleotides A04051H (SEQ ID No.88), A04052H (SEQ ID No.89), A04053H ([…]), A04056H (SEQ ID No.92), A04059H (SEQ ID No.94), A04060H (SEQ ID No.95), and A04061H (SEQ ID No.96) had shown potent single-dose activity in both HDLM-2 and A-172 cells. […] The antisense oligonucleotide A04040H that had shown potent activity in the first screening round was used as reference. hCD39 mRNA expression was analyzed after 3 days of treatment. FIG. 7 depicts the concentration-dependent reduction of hCD39 expression by hCD39 antisense oligonucleotides.
# hCD39 mRNA [2] = experiment: hCD39 mRNA knockdown efficacy screen in A-172 cells (single dose, gymnotic delivery, QuantiGene Singleplex); details: 10 μM, 3 days; for Residual hCD39 mRNA expression relative to untreated cells (set as 1): third screening round; for Mean hCD39 mRNA expression (relative to untreated cells set as 1): first screening round; for Mean hCD39 mRNA expression (relative to untreated cells set as 1) / Relative hCD39 mRNA expression (compared to non-treated cells): normalized to HPRT1; for Relative hCD39 mRNA expression (compared to non-treated cells): second screening round
# Summary of the method: (§1)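 Antisense oligonucleotides given once at 10 μM without transfection reagent (gymnotic) to HDLM-2 or A-172 cells for 3 days. hCD39 mRNA measured by QuantiGene Singleplex, normalized to HPRT1 and expressed relative to untreated cells; triplicate means.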
# hCD39 mRNA [3] = experiment: hCD39 mRNA knockdown efficacy screen in HDLM-2 cells (single dose, gymnotic delivery, QuantiGene Singleplex); design: key to Relative hCD39 mRNA expression (compared to non-treated cells): *: values are below detection limit; details: 10 μM, 3 days; for Residual hCD39 mRNA expression relative to untreated cells (set as 1): third screening round; for Mean hCD39 mRNA expression normalized to HPRT1 relative to untreated control = 1: first screening round; for Relative hCD39 mRNA expression (compared to non-treated cells): second screening round, normalized to HPRT1
# Summary of the method: as §1
# [4] = third screening round (Table 12)
# [5] = second screening round (Table 9)
Substance,"mRNA inhibition (hCD39 mRNA [1]; 0.45 nM, Table 12) [%]","mRNA inhibition (hCD39 mRNA [1]; 1.3 nM, Table 12) [%]","mRNA inhibition (hCD39 mRNA [1]; 4 nM, Table 12) [%]","mRNA inhibition (hCD39 mRNA [1]; 12 nM, Table 12) [%]","mRNA inhibition (hCD39 mRNA [1]; 40 nM, Table 12) [%]","mRNA inhibition (hCD39 mRNA [1]; 110 nM, Table 12) [%]","mRNA inhibition (hCD39 mRNA [1]; 330 nM, Table 12) [%]","mRNA inhibition (hCD39 mRNA [1]; 1000 nM, Table 12) [%]",IC50 (hCD39 mRNA [1]; [4]) [µM],Residual hCD39 mRNA expression relative to untreated cells (set as 1) (hCD39 mRNA [2]),Residual hCD39 mRNA expression relative to untreated cells (set as 1) (hCD39 mRNA [3]),Mean hCD39 mRNA expression (relative to untreated cells set as 1) (hCD39 mRNA [2]),Relative hCD39 mRNA expression (compared to non-treated cells) (hCD39 mRNA [2]),Mean hCD39 mRNA expression normalized to HPRT1 relative to untreated control = 1 (hCD39 mRNA [3]),Relative hCD39 mRNA expression (compared to non-treated cells) (hCD39 mRNA [3]),"mRNA inhibition (hCD39 mRNA [1]; 0.0045 μM, Table 9) [%]","mRNA inhibition (hCD39 mRNA [1]; 0.013 μM, Table 9) [%]","mRNA inhibition (hCD39 mRNA [1]; 0.04 μM, Table 9) [%]","mRNA inhibition (hCD39 mRNA [1]; 0.12 μM, Table 9) [%]","mRNA inhibition (hCD39 mRNA [1]; 0.4 μM, Table 9) [%]",other results
"+T*+A*+C*G*T*T*C*A*C*T*A*C*C*T*+T*+C*+T (antisense TACGTTCACTACCTTCT; sugars from the 5' end l3 d11 l3, all phosphorothioate, methylation of C not given here) [A04052H]",24.52,25.80,9.03,31.25,49.21,75.30,88.35,94.72,0.054,0.25,0.00,–,–,–,–,–,–,–,–,–,–
"+C*+A*+G*T*C*A*A*T*C*C*T*G*C*+T*+C*+A (antisense CAGTCAATCCTGCTCA; sugars from the 5' end l3 d10 l3, all phosphorothioate, methylation of C not given here) [A04039H]",–,–,–,–,–,–,–,–,–,–,–,0.27,0.14,0.06,*,–,–,–,–,–,"mRNA inhibition (hCD39 mRNA [1]; 0.0045 μM, Table 8): 11.56%; mRNA inhibition (hCD39 mRNA [1]; 0.013 μM, Table 8): 14.30%; mRNA inhibition (hCD39 mRNA [1]; 0.04 μM, Table 8): 20.47%; mRNA inhibition (hCD39 mRNA [1]; 0.12 μM, Table 8): 44.03%; mRNA inhibition (hCD39 mRNA [1]; 0.4 μM, Table 8): 71.25%; mRNA inhibition (hCD39 mRNA [1]; 1.1 μM, Table 8): 85.22%; mRNA inhibition (hCD39 mRNA [1]; 3.3 μM, Table 8): 92.53%; mRNA inhibition (hCD39 mRNA [1]; 10 μM, Table 8): 96.54%; IC50 (hCD39 mRNA [1]; first screening round (Table 8)): 0.177 µM"
"+T*+A*+C*G*T*T*C*A*C*T*A*C*C*T*+T*C*+T (antisense TACGTTCACTACCTTCT; sugars from the 5' end l3 d11 l1 d1 l1, all phosphorothioate, methylation of C not given here) [A04053H]",2.07,17.51,9.81,26.67,37.75,66.64,85.19,92.69,0.0676,0.31,0.01,–,–,–,–,–,–,–,–,–,–
"+T*+A*+T*G*G*T*A*C*A*G*T*+T*G*+G*+T (antisense TATGGTACAGTTGGT; sugars from the 5' end l3 d8 l1 d1 l2, all phosphorothioate, methylation of C not given here) [A04020H]",–,–,–,–,–,–,–,–,–,–,–,0.03,0.04,0.08,0.08,23.58,68.27,94.26,98.89,99.42,"mRNA inhibition (hCD39 mRNA [1]; 1.1 μM, Table 9): 99.61%; mRNA inhibition (hCD39 mRNA [1]; 3.3 μM, Table 9): 99.55%; mRNA inhibition (hCD39 mRNA [1]; 10 μM, Table 9): 99.41%; IC50 (hCD39 mRNA [1]; [5]): 0.0101 µM"
"+G*G*+A*C*A*A*T*G*G*T*T*G*+C*+T*+C (antisense GGACAATGGTTGCTC; sugars from the 5' end l1 d1 l1 d9 l3, all phosphorothioate, methylation of C not given here) [A04016H]",–,–,–,–,–,–,–,–,–,–,–,0.09,0.09,0.10,0.10,18.41,42.19,62.31,77.61,90.51,"mRNA inhibition (hCD39 mRNA [1]; 1.1 μM, Table 9): 96.67%; mRNA inhibition (hCD39 mRNA [1]; 3.3 μM, Table 9): 98.38%; mRNA inhibition (hCD39 mRNA [1]; 10 μM, Table 9): 98.94%; IC50 (hCD39 mRNA [1]; [5]): 0.0128 µM"

# — US11959083B2, “Immunosuppression-reverting oligonucleotides inhibiting the expression of CD39” (Secarna Pharmaceuticals GmbH & Co. KG, priority 2016, dated 2024)
